Measurements taken from ChEMBL document CHEMBL1134559 (J Med Chem, 2001).

Legend:
[1] = molecular target: T1, Delta-type opioid receptor (Rattus norvegicus, UniProt P33533); assay: Binding affinity to delta-opioid receptor of rat brain using [3H]DADLE as radioligand
Mu-type opioid receptor [2] = molecular target: T2, Mu-type opioid receptor (Rattus norvegicus, UniProt P33535); assay: Binding affinity to mu-opioid receptor of rat brain using [3H]DAMGO as radioligand
[3] = Inhibition of stimulation of [35S]GTP-gamma-S, binding produced by the selective agonist (SNC-80, delta-receptor), in guinea pig caudate membranes
[4] = molecular target: T3, Kappa-type opioid receptor (Cavia porcellus, UniProt P41144); assay: Binding affinity to opioid receptor kappa 1 of guinea pig brain, using [3H]U-69593 as radioligand
T3 sequence (P41144 whole entry): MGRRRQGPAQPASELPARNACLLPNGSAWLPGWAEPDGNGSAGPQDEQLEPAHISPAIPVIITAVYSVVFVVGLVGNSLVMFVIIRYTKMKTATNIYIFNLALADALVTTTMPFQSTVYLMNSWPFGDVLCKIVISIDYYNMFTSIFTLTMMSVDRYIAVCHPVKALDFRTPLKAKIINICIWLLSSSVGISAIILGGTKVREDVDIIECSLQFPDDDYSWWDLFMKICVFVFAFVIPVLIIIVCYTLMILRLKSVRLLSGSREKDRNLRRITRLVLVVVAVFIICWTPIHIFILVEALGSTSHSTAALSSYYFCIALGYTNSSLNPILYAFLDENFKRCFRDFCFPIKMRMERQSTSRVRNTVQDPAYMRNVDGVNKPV

Mu-type opioid receptor [5] = molecular target: T2, Mu-type opioid receptor; assay: Antagonist activity on agonist (DAMGO) stimulated [35S]GTP-gamma-S, binding in cloned mu opioid receptors.; type: functional
[6] = molecular target: T3, Kappa-type opioid receptor; assay: Inhibition of stimulation of [35S]GTP-gamma-S, binding produced by the selective agonist (U69593, kappa-receptor), in guinea pig caudate membranes.
Mu-type opioid receptor [7] = molecular target: Mu-type opioid receptor (Cavia porcellus, UniProt P97266); assay: Inhibition of stimulation of [35S]GTP-gamma-S, binding produced by the selective agonist (DAMGO, mu-receptor), in guinea pig caudate membranes.; type: functional, cell membranes
Sequence of Mu-type opioid receptor (Cavia porcellus, UniProt P97266) (P97266 whole entry): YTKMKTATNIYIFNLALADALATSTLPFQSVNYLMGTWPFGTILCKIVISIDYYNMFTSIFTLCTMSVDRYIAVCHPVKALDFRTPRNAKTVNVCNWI

Mu-type opioid receptor [8] = molecular target: T2, Mu-type opioid receptor; assay: Binding affinity to mu-opioid receptor of rat brain using [3H]DAMGO as radioligand.
[9] = molecular target: T1, Delta-type opioid receptor; assay: Binding affinity to delta-opioid receptor of rat brain using [3H]DADLE as radioligand.

T2 sequence (P33535 whole entry): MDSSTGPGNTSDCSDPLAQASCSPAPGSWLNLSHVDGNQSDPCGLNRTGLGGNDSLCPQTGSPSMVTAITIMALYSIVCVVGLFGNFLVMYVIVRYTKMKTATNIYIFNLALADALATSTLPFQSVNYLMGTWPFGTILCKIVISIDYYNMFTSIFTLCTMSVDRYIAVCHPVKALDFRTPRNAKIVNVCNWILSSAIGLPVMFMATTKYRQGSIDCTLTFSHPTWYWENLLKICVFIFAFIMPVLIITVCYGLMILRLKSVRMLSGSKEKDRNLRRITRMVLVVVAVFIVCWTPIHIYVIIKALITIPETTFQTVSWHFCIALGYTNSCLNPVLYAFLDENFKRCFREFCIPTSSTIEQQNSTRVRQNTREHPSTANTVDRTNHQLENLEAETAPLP
T1 sequence (P33533 whole entry): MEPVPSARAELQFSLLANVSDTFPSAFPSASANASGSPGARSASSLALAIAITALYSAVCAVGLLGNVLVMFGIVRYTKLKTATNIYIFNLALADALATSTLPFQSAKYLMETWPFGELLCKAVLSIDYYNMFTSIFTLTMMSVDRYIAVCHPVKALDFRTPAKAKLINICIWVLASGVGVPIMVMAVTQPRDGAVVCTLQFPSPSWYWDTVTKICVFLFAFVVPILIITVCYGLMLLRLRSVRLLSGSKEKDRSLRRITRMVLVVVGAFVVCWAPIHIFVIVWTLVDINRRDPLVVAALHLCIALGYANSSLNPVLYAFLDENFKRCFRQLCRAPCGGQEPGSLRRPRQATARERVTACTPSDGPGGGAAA

| Structure (SMILES) | Ki [1] [nM] | Ki (Mu-type opioid receptor [2]) [nM] | Ki [3] [nM] | Ki [4] [nM] | Ki (Mu-type opioid receptor [5]) [nM] | Ki [6] [nM] | Ki (Mu-type opioid receptor [7]) [nM] | Ki (Mu-type opioid receptor [8]) [nM] | Ki [9] [nM] |
| --- | --- | --- | --- | --- | --- | --- | --- | --- | --- |
| CC(C)[C@@H](CN1CC[C@@](C)(c2cccc(O)c2)[C@@H](C)C1)NC(=O)CCc1ccc(O)cc1 | > 3400 | 171 | 450 | 3.84 | – | – | – | – | – |
| Oc1ccc2c3c1O[C@H]1c4[nH]c5c(c4C[C@@]4(O)[C@@H](C2)N(CC2CC2)CC[C@]314)C[C@@]1(O)[C@H]2Cc3ccc(O)c4c3[C@@]1(CCN2CC1CC1)[C@H]5O4 [NORBINALTORPHIMINE] | 86 | – | – | 109 | – | – | – | – | – |
| CC(C)[C@@H](CN1CC[C@@](C)(c2cccc(O)c2)[C@@H](C)C1)NC(=O)C1Cc2ccc(O)cc2CN1 (stereo partly specified) | – | – | – | – | 3.42 | 0.02 | 2.16 | 3.73 | 301 |
